Experimental findings from patent publication US9682028B2, “Personal care photoprotective compositions with tricyclodecane amides” (Conopco, Inc., priority 2013, dated 2017) are described below.

One assay concerns human sebocytes. Nature of the assay: Sebocyte assay (sebum suppression, 14C-acetate incorporation). Type of assay: cell-based. The note with it: for inhibition at 10 µM: read-out: % Reduction at 10 microMolar; for inhibition at 100 µM: read-out: % Reduction at 100 microMolar. The protocol: Sebum suppression effect of the tricyclodecane amides suitable for use in the present invention was investigated.
Secondary cultures of human sebocytes obtained from an adult […] were grown in 96-well tissue culture plates (Packard) until three days post-confluence. Sebocyte growth medium consisted of Clonetics Keratinocyte Basal Medium (KBM) supplemented with 14 μg/ml bovine pituitary extract, 0.4 μg/ml hydrocortisone, 5 μg/ml insulin, 10 ng/ml epidermal growth factor, 1.2×10^−10 M cholera toxin, 100 units/ml penicillin, and 100 μg/ml streptomycin. All cultures were incubated at 37° C. in the presence of 5% CO2. Medium was changed three times per week.
On the day of experimentation, the growth medium was removed and the sebocytes washed three times with sterile Dulbecco's Modified Eagle Medium (DMEM; phenol red free). Fresh DMEM was added to each sample (triplicates) with 5-microliters of test agent solubilized in ethanol. Controls consisted of addition ethanol alone. Each plate was returned to the incubator for 20-hours followed by the addition of ^14C-acetate buffer (5 mM final concentration, 56 mCi/mmol specific activity). Sebocytes were returned to the incubator for 4-hours after which each culture was rinsed 3-times with phosphate buffered saline to remove unbound label. Radioactive label remaining in the sebocytes was determined using a Packard Microbeta, scintillation counter. Phenol Red, a known sebum suppressive agent, was employed as a positive control.

The nature of assay [1]: In vitro MPF evaluation (monochromatic protection factor). Format: physicochemical. The note with it: summary of Table 4. The protocol: MPF=monochromatic protection factor=1/Transmittance at a specific wavelength (lower transmittance gives higher MPF therefore higher absorption for the sunscreen). 305 nm=UVB, 360 nm=UVA. MPF was measured using the same apparatus as SPF above. MPF % increase over control (measured MPF at 305 nm and 360 nm for selected formulation−measured MPF at 305 nm and 360 nm of control)/measured MPF at 305 nm and 360 nm of control×100.

Assay [2] can be described thus: In vitro SPF evaluation (Optometric 290S SPF meter, PMMA plate). Format: physicochemical. As to conditions: summary of Table 2. As to the method: SPF, UV-A, and UV-B improvement of compositions within the scope of the invention was investigated.
In vitro SPF measurement was done using the Optometric 290S SPF meter. The product was applied at a dosage of 2 mg/cm^2 on PMMA (polymethylmethacrylate) plate (7 cm×7 cm) and allowed to air dry for 30 minutes. The average SPF value was obtained from 6 SPF readings per plate. Two duplicated runs, the standard deviation from the average was ±2 SPF units. % increase of in vitro SPF versus control calculation: (measured SPF for selected formulation−measured SPF of control)/measured SPF of control×100.

[3] abbreviates: 10 microMolar test agent, 20 h incubation then 4 h 14C-acetate, radioactive label remaining in sebocytes.
Setting [4] is: 100 microMolar test agent, 20 h incubation then 4 h 14C-acetate, radioactive label remaining in sebocytes.

The structures appear in SMILES notation. Like-named read-outs stand apart in the source and are kept apart here.

Consider `CC(C)(C)CC(C)(C)NC(=O)C12CC3CC(CC(C3)C1)C2` [Compound C21, Methanone, (1,1-dimethyl-3,3-dimethylbutylaminyl)tricyclo[3.3.1.1^3,7]dec-1-yl-], for which the inhibition at 10 µM in the assay with human sebocytes (setting [3]) is 26.4%. For the same compound, the inhibition at 100 µM in the assay on human sebocytes (setting [4]) was determined as 43.5%.
As to `CC1CCCN(C(=O)C23CC4CC(CC(C4)C2)C3)C1` (stereo not drawn) [Compound C14, Methanone, (3-methyl-1-piperidinyl)tricyclo[3.3.1.1^3,7]dec-1-yl], in the assay on human sebocytes, the inhibition at 10 µM turned out to be 52.8% and the inhibition at 100 µM amounted to 76%.
In the same order, the values of `O=C(N1CCC1)C12CC3CC(CC(C3)C1)C2` [Compound C4, Methanone, (azetidinyl)tricyclo[3.3.1.1^3,7]dec-1-yl-] are 16.3% and 27.9%.
On to `O=C(N1CCCC2CCCCC21)C12CC3CC(CC(C3)C1)C2` (stereo not drawn) [Compound C10, Methanone, (decahydroquinolinyl)tricyclo[3.3.1.1^3,7]dec-1-yl-], for which, in the assay on human sebocytes (setting [3]), the inhibition at 10 µM was found to be 63.4%. Also, the inhibition at 100 µM with human sebocytes (setting [4]) is 89.6%.
Taken in the same sequence, the figures for `O=C(N1CCCCCC1)C12CC3CC(CC(C3)C1)C2` [Compound C5, Methanone, (hexahydroazepinyl)tricyclo[3.3.1.1^3,7]dec-1-yl-] were 32.4% and 50.5%.
In the same order, the values of `CC(C)(C)CNC(=O)C12CC3CC(CC(C3)C1)C2` [Compound C20, Methanone, (2,2-dimethylpropylaminyl)tricyclo[3.3.1.1^3,7]dec-1-yl-] are 49.5% and 82.8%.
In the same order, the values of `CC1CCN(C(=O)C23CC4CC(CC(C4)C2)C3)CC1` [Compound C13, Methanone, (4-methyl-1-piperidinyl)tricyclo[3.3.1.1^3,7]dec-1-yl] are 63.5% and 90.4%.
Turning to `CC(C)N(C(=O)C12CC3CC(CC(C3)C1)C2)C(C)C` [Compound C18, Methanone, (N,N-diisopropyl)tricyclo[3.3.1.1^3,7]dec-1-yl-], in the assay with human sebocytes, the inhibition at 10 µM amounted to 42% and the inhibition at 100 µM worked out at 52.5%.
As for `NC(=O)C1CCN(C(=O)C23CC4CC(CC(C4)C2)C3)CC1` [Compound C7, Methanone, (4-amido-piperidinyl)tricyclo[3.3.1.1^3,7]dec-1-yl-], in the assay with human sebocytes (setting [3]), the inhibition at 10 µM came to 58.9%. In addition, the inhibition at 100 µM with human sebocytes (setting [4]) is 73.4%.
Consider `CC(C)(C)CCNC(=O)C12CC3CC(CC(C3)C1)C2` [Compound C19, Methanone, (3,3-dimethylbutylaminyl)tricyclo[3.3.1.1^3,7]dec-1-yl-], for which, in the assay with human sebocytes (setting [3]), the inhibition at 10 µM came out at 35.9%.
`O=S1(=O)OC(c2ccc(O)cc2)(c2ccc(O)cc2)c2ccccc21` [Phenol Red, reference compound]: in the assay with human sebocytes (setting [3]), the inhibition at 10 µM was 17.1%. For the same compound, the inhibition at 100 µM in the assay with human sebocytes (setting [4]) was 65.1%.
In the case of `CCC1(CC)CCN(C(=O)C23CC4CC(CC(C4)C2)C3)C1` [Compound C17, Methanone, (3,3-diethyl-pyrrolidinyl)tricyclo[3.3.1.1^3,7]dec-1-yl-], in the assay with human sebocytes (setting [3]), the inhibition at 10 µM is 32.2%. The inhibition at 100 µM with human sebocytes (setting [4]) came out at 65.2%.
As to `CC1CCCCN1C(=O)C12CC3CC(CC(C3)C1)C2` (stereo not drawn) [Compound C12, Methanone, (2-methyl-1-piperidinyl)tricyclo[3.3.1.1^3,7]dec-1-yl-], in the assay on human sebocytes, the inhibition at 10 µM is 24.5% and the inhibition at 100 µM stood at 51%.
For the compound `CCC1(C)CCN(C(=O)C23CC4CC(CC(C4)C2)C3)CC1` [Compound C16, Methanone, (4-methyl-4-ethy-piperidinyl)tricyclo[3.3.1.1^3,7]dec-1-yl-], the inhibition at 10 µM in the assay on human sebocytes (setting [3]) came to 49.8%. The inhibition at 100 µM with human sebocytes (setting [4]) is 80.7%.
Turning to `CC1(C)CCCN(C(=O)C23CC4CC(CC(C4)C2)C3)C1` [Compound C11, Methanone, (3,3-dimethyl-1-piperidinyl)tricyclo[3.3.1.1^3,7]dec-1-yl], in the assay with human sebocytes (setting [3]), the inhibition at 10 µM came out at 39.3%. For the same compound, in the assay with human sebocytes (setting [4]), the inhibition at 100 µM was found to be 76.6%.
Taken in the same sequence, the figures for `O=C(N1CCCCC1)C12CC3CC(CC(C3)C1)C2` [Compound C2, Methanone, (piperidiny)tricyclo[3.3.1.1^3,7]dec-1-yl-] were 34.3% and 51.6%.
With `N#CC1CCN(C(=O)C23CC4CC(CC(C4)C2)C3)CC1` [Compound C6, Methanone, (4-cyano-piperidinyl)tricyclo[3.3.1.1^3,7]dec-1-yl], the inhibition at 10 µM with human sebocytes (setting [3]) came to 24.8%. Further, the inhibition at 100 µM in the assay on human sebocytes (setting [4]) was 39.4%.
In the same order, the values of `O=C(NC12CC3CC(CC(C3)C1)C2)C12CC3CC(CC(C3)C1)C2` [Compound C8, Methanone, (Tricyclo[3.3.1.1^3,7]decanyl)-N-tricyclo[3.3.1.1^3,7]dec-1-yl-] are 19.1% and 58.8%.
Taken in the same sequence, the figures for `O=C(N1CCOCC1)C12CC3CC(CC(C3)C1)C2` [Compound C1, Methanone, (morphonyl)tricyclo[3.3.1.1^3,7]dec-1-yl-] were 35.4% and 78.5%.
On to `CCCCCCCCCCCCCCCCCC(N)=O` [octadecanamide], for which the “UV-A and UV-B protection improvement (in words)” value in assay [1] was “did not achieve these improvements”. In addition, the “SPF protection improvement (in words)” value in assay [2] is recorded as “did not achieve these improvements”.
For the compound `O=C(N1CCC2CCCCC2C1)C12CC3CC(CC(C3)C1)C2` (stereo not drawn) [Compound C9, Methanone, (decahydroisoquinolinyl)tricyclo[3.3.1.1^3,7]dec-1-yl-], in the assay on human sebocytes (setting [3]), the inhibition at 10 µM was 81.2%. For the same compound, the inhibition at 100 µM in the assay with human sebocytes (setting [4]) amounted to 86.8%.
Take `CC(C)CC(C)NC(=O)C12CC3CC(CC(C3)C1)C2` (stereo not drawn) [Compound C22, Methanone, (1,3-dimethyl-butylaminyl)tricyclo[3.3.1.1^3,7]dec-1-yl-]: in the assay on human sebocytes, the inhibition at 10 µM worked out at 29.1% and the inhibition at 100 µM came to 45.3%.
On to `CC1CC(C)CN(C(=O)C23CC4CC(CC(C4)C2)C3)C1` (stereo not drawn) [Compound C15, Methanone, (3,5-dimethyl-1-piperidinyl)tricyclo[3.3.1.1^3,7]dec-1-yl-], for which, in the assay with human sebocytes (setting [3]), the inhibition at 10 µM was 40.1%. For the same compound, the inhibition at 100 µM in the assay on human sebocytes (setting [4]) came out at 71%.
